Test results as given in US5091539A, “Azolyl cycloalkanol derivatives and agricultural fungicides” (Shionogi & Co., Ltd., priority 1984, dated 1992).
In brackets after ≈: the same amount, converted by molar mass.

Legend:
[1] = tested on: Corticium rolfsii; assay: Anti-fungal activity in vitro; assay type: cell-based; details: Agroathelia rolfsii, 48 h; GY medium, 28° C., 2 days
Experimental: (§1) (1) Each test compound was diluted by two-fold dilution with GY medium (2% glucose and 0.4% yeast extract) containing 0.01% Tween 80 (trademark). Every diluted solution was inoculated with spore suspension (10^5-5 spores/ml) of Alternaria kikuchiana or a hyphae disk with agar (4 mm in diameter) of other fungi and incubated at 28° C. for 2 days.

[2] = tested on: Cochiobolus sativus; assay: Anti-fungal activity in vitro; assay type: cell-based; details: 48 h; GY medium, 28° C., 2 days
Experimental: as §1

[3] = tested on: Monilinia fructicola; assay: Anti-fungal activity in vitro; assay type: cell-based; details: 48 h, GY medium, 28° C., 2 days
Experimental: as §1

[4] = tested on: Diaporthe citri; assay: Anti-fungal activity in vitro; assay type: cell-based; details: 48 h, GY medium, 28° C., 2 days
Experimental: as §1

[5] = tested on: Alternaria kikuchiana; assay: Anti-fungal activity in vitro; assay type: cell-based; details: 48 h, GY medium, 28° C., 2 days, spore suspension
Experimental: as §1

[6] = tested on: Vasla ceratosperma; assay: Anti-fungal activity in vitro; assay type: cell-based; details: 48 h; GY medium, 28° C., 2 days
Experimental: as §1

[7] = tested on: Pyrenophora graminea; assay: Anti-fungal activity in vitro; assay type: cell-based; details: 48 h, GY medium, 28° C., 2 days
Experimental: as §1

[8] = tested on: Ustilago nuda; assay: Anti-fungal activity in vitro; assay type: cell-based; details: 48 h, GY medium, 28° C., 2 days
Experimental: as §1

[9] = tested on: Sphaerotheca fuliginea; assay: Control test to powdery mildew of cucumber (foliar and soil treatment); assay type: in vivo; details: for Foliar Treatment, Curative Effect / Foliar Treatment, Protective Effect / Soil Treatment, Protective Effect: index 0-10
Experimental: (1) Seeds of cucumber (Cultivar: Matsukaze) were sown in a pot of 9 cm in diameter and the pots were kept in a green house until the plant was grown for 2-3 leaf stage. The first leaf was sprayed with, (i) 3 ml each of solutions containing the test compound at the prescribed concetrations and dried by the air (foliar treatment). Inoculation of spore suspension of Sphaerotheca fuliginea by spraying was practised 2 days before the treatment (curative effect) or 1 day after the treatment (protective effect). Alternatively, (ii) 5 ml of the solution was applied at the root of the seedlings (soil treatment). The pots were kept in a greenhouse for 2 days and inoculation was practised in the same manner noted above. (iii) After sprayed with 3 ml of a solution of the test compound at a concentration of 125 ppm and dried by the air, the treated pots were set in a greenhouse. Untreated pots were placed next to the treated pots. Those treated and untreated plants were inoculated with spore suspension. Protective effect of the test compounds by vapor was thus checked. The effect was examined 14 days after the inoculation of the spores.
0: Disease sign is observed on the whole leaf.
3: Disease sign is observed on the leaf in about 50%.
5: Disease sign is observed on the leaf in about 30%.
7: Disease sign is observed on the leaf in about 20%.
9: a little disease sign is observed.
(§2) (1) Test methods and evaluation are the same as those in Tests 2, 4 and 6.

[10] = tested on: Rhizoctonia solani; assay: Control test to damping-off of cucumber (Rhizoctonia solani); assay type: in vivo; details: soil drench, 14 days
Experimental: (§3) (1) The fungus causing damping-off of cucumber seedlings, Rhizoctonia solani or Fusarium oxysporum was cultured on a wheat bran medium at 28° C. for 5 days, which was mixed with sterilized soil and cultured for 2 days to prepare the inoculum. Sterilized soil (150 g) was put into a pot of 9 cm in diameter. The surface of the spot was covered with the above inoculum. […] Twenty cucumber seeds (Cultivar: Matsukaze) were sown 2 days after. The pots were kept at 30°±2° C. for 14 days. The infection was observed 14 days after and disease degree and percent disease degree were obtained by setting an evaluation index for each disease sympton.
(§4) (2) Evaluation [formula] wherein a: number of seeds without germination b: number of seedlings showing damping-off c: number of wilted seedlings d: number of seedlings being a little brownish in cotyledons or at the bottom of the stem e: number of uninfected seedlings [formula] wherein a: number of seeds without germination or seedlings with damping-off b: number of wilted seedlings c: number of seedlings being a little brownish in cotyledons or at the bottom of the stem d: number of uninfected seedlings [formula]

[11] = tested on: Fusarium oxysporum; assay: Control test to damping-off of cucumber (Fusarium oxysporum); assay type: in vivo; details: 500 ppm, soil drench, 14 days
Experimental: as §3, §4

[12] = tested on: Cladosporium herbarum; assay: Anti-fungal activity in vitro; assay type: cell-based; details: 48 h, GY medium, 28° C., 2 days
Experimental: as §1

[13] = tested on: Puccinia coronata; assay: Control test of crown rust of oat; assay type: in vivo
Experimental: (1) Young oats (Cultivar: Pc38) grown in pots in a greenhouse were (i) sprayed with 10 ml each of solution of the test compounds at a prescribed concentration and after air-drying, they were inoculated with 15 mg of uredospores of Puccinia coronata per 20 pots (protective spraying) or (ii) sprayed with the test solution 3 days after inoculation of uredospores. After each plant was kept at 20°-25° C. in a greenhouse for 2 weeks, number of uredia was counted on the first leaf.

[14] = tested on: Sclerotinia sclerotiorum; assay: Control test to Sclerotinia rot of cucumber; assay type: in vivo
From the text: (1) This test was practised in the same manner as in the above test, control test of Botrytis rot (gray mold) of cucumber, except for using the mycelium of Sclerotinia sclerotiorum as inoculm. The same as in test 2.

[15] = tested on: Botrytis cinerea; assay: Control test of Botrytis rot (gray mold) of cucumber; assay type: in vivo
Experimental: (1) Seedlings of cucumber (Cultivar: Matsukaze) were planted in a pot of 9 cm in diameter. The first leaf was sprayed with 3 ml each of solutions containing the test compound at the concentration of 125 or 31.3 ppm and the plant was dried by the air. After inoculation of the spores of Botrytis cinerea, the plants were kept at 20°±2° C. and 90-100% humidity ((i) protective spraying). Alternatively, the spores were inoculated at first and when the leaves suffered a little (about 2 days after), the solutions of the test compounds were sprayed ((ii) curative spraying). Evaluation was practised 3 days after the inoculation. Percent disease control was calculated by the ratio of diameter of diseased area in treated and untreated plants.
as §2

Row | MIC [1] [µg/mL] | MIC [2] [µg/mL] | MIC [3] [µg/mL] | MIC [4] [µg/mL] | MIC [5] [µg/mL] | MIC [7] [µg/mL] | MIC [8] [µg/mL] | MIC [12] [µg/mL] | SMILES | MIC [6] [µg/mL] | Foliar Treatment, Curative Effect ([9]; second Table 4, 0.5 ppm) | Foliar Treatment, Protective Effect ([9]; second Table 4, 0.5 ppm) | Soil Treatment, Protective Effect ([9]; second Table 4, 0.5 ppm) | Foliar Treatment, Curative Effect ([9]; second Table 4, 2.0 ppm) | Foliar Treatment, Protective Effect ([9]; second Table 4, 2.0 ppm) | Soil Treatment, Protective Effect ([9]; second Table 4, 2.0 ppm) | Foliar Treatment, Curative Effect ([9]; second Table 4, 7.8 ppm) | Foliar Treatment, Protective Effect ([9]; second Table 4, 7.8 ppm) | Soil Treatment, Protective Effect ([9]; second Table 4, 7.8 ppm) | Foliar Treatment, Curative Effect ([9]; second Table 4, 31.3 ppm) | Foliar Treatment, Protective Effect ([9]; second Table 4, 31.3 ppm) | further results
1 | 1.56 (≈ 4.42 µM) | 3.13 (≈ 8.88 µM) | 1.56 (≈ 4.42 µM) | 3.13 (≈ 8.88 µM) | 25 (≈ 70.9 µM) | 6.25 (≈ 17.7 µM) | 6.25 (≈ 17.7 µM) | – | O[C@@]1(c2sc(Cl)c(Cl)c2Cl)CCCC[C@H]1n1cncn1 (relative stereo) [Compound 12, cis-1-(3,4,5-trichloro-2-thienyl)-2-(1,2,4-triazol-1-yl)cyclohexanol] | 3.13 (≈ 8.88 µM) | – | – | – | – | – | – | – | – | – | – | – | Protective Index, Foliar Treatment ([9]; first Table 4, 125 ppm, foliar, 14 days): 10; Protective Index, Soil Treatment ([9]; first Table 4, 125 ppm, soil, 14 days): 10; Disease Degree ([10]; 500 ppm): 0; Percent Disease Control ([10]; 500 ppm): 100%; Disease Degree [11]: 17; Percent Disease Control [11]: 83%
2 | 12.5 (≈ 45 µM) | 3.13 (≈ 11.3 µM) | 0.39 (≈ 1.4 µM) | 3.13 (≈ 11.3 µM) | 3.13 (≈ 11.3 µM) | 1.56 (≈ 5.62 µM) | 3.13 (≈ 11.3 µM) | 1.56 (≈ 5.62 µM) | O[C@@]1(c2ccccc2Cl)CCCC[C@H]1n1cncn1 (relative stereo) [Compound 32] | – | 7 (Disease sign is observed on the leaf in about 20%.) | 0 | 0 | 10 | 9 | 0 | 10 | 10 | 10 | 10 | 10 | Soil Treatment, Protective Effect ([9]; second Table 4, 31.3 ppm): 10; Percent Disease Control, Curative Spraying ([14]; 31.3 ppm): 86%; Percent Disease Control, Protective Spraying ([14]; 31.3 ppm): 72%; Percent Disease Control, Curative Spraying ([14]; 125 ppm): 94%; Percent Disease Control, Protective Spraying ([14]; 125 ppm): 100%; Disease Degree ([10]; 31.3 ppm): 10; Percent Disease Control ([10]; 31.3 ppm): 90%
3 | 50 (≈ 171 µM) | 6.25 (≈ 21.4 µM) | 0.2 (≈ 0.685 µM) | 25 (≈ 85.7 µM) | 12.5 (≈ 42.8 µM) | 12.5 (≈ 42.8 µM) | 1.56 (≈ 5.35 µM) | 6.25 (≈ 21.4 µM) | O[C@@]1(c2ccc(Cl)cc2)CCCCC[C@H]1n1cncn1 (relative stereo) [Compound 24, cis-1-(4-chlorophenyl)-2-(1,2,4-triazol-1-yl)cycloheptanol] | – | 10 | 5 (Disease sign is observed on the leaf in about 30%.) | 0 | 10 | 10 | 0 | 10 | 10 | 10 | 10 | 10 | Soil Treatment, Protective Effect ([9]; second Table 4, 31.3 ppm): 10; Percent Disease Control, Curative Spraying ([15]; Table 2, 31.3 ppm): 86%; Percent Disease Control, Protective Spraying ([15]; Table 2, 31.3 ppm): 100%; Percent Disease Control, Curative Spraying ([15]; Table 2, 125 ppm): 94%; Percent Disease Control, Protective Spraying ([15]; Table 2, 125 ppm): 100%; Percent Disease Control, Curative Spraying ([14]; 31.3 ppm): 96%; Percent Disease Control, Protective Spraying ([14]; 31.3 ppm): 100%; Percent Disease Control, Curative Spraying ([14]; 125 ppm): 97%; Percent Disease Control, Protective Spraying ([14]; 125 ppm): 100%

Row | SMILES | MIC [1] [µg/mL] | MIC [2] [µg/mL] | MIC [3] [µg/mL] | MIC [4] [µg/mL] | MIC [5] [µg/mL] | MIC [7] [µg/mL] | MIC [8] [µg/mL] | MIC [12] [µg/mL] | MIC [6] [µg/mL] | Foliar Treatment, Curative Effect ([9]; second Table 4, 0.5 ppm) | Foliar Treatment, Protective Effect ([9]; second Table 4, 0.5 ppm) | Soil Treatment, Protective Effect ([9]; second Table 4, 0.5 ppm) | Foliar Treatment, Curative Effect ([9]; second Table 4, 2.0 ppm) | Foliar Treatment, Protective Effect ([9]; second Table 4, 2.0 ppm) | Soil Treatment, Protective Effect ([9]; second Table 4, 2.0 ppm) | Foliar Treatment, Curative Effect ([9]; second Table 4, 7.8 ppm) | Foliar Treatment, Protective Effect ([9]; second Table 4, 7.8 ppm) | Soil Treatment, Protective Effect ([9]; second Table 4, 7.8 ppm) | Foliar Treatment, Curative Effect ([9]; second Table 4, 31.3 ppm) | Foliar Treatment, Protective Effect ([9]; second Table 4, 31.3 ppm) | further results
4 | OC(c1ccc(Cl)cc1)(c1cncnc1)c1ccccc1Cl (centres unmarked) [Fenarimol, reference compound] | 25 (≈ 75.5 µM) | 1.56 (≈ 4.71 µM) | 3.13 (≈ 9.45 µM) | > 50 | 6.25 (≈ 18.9 µM) | 12.5 (≈ 37.7 µM) | 25 (≈ 75.5 µM) | > 50 | 12.5 (≈ 37.7 µM) | – | – | – | – | – | – | – | – | – | – | – | Percent Disease Control, Curative Spraying ([13]; 12.5 ppm): 75%; Percent Disease Control, Protective Spraying ([13]; 12.5 ppm): 62%; Percent Disease Control, Curative Spraying ([13]; 25 ppm): 92%; Percent Disease Control, Protective Spraying ([13]; 25 ppm): 89%; Percent Disease Control, Curative Spraying ([13]; 50 ppm): 98%; Percent Disease Control, Protective Spraying ([13]; 50 ppm): 100%
